Here are results for 20 compounds from ChEMBL document CHEMBL1201862, “PubChem BioAssay data set” (2004).

One assay addresses Cytochrome P450 3A4 (Homo sapiens, UniProt P08684).
A further assay addresses Cytochrome P450 2C9 (Homo sapiens, UniProt P11712).
For assay [1], the target named is T1, Heat shock factor protein 1 (Mus musculus, UniProt P38532).
T1 sequence (P38532 whole entry): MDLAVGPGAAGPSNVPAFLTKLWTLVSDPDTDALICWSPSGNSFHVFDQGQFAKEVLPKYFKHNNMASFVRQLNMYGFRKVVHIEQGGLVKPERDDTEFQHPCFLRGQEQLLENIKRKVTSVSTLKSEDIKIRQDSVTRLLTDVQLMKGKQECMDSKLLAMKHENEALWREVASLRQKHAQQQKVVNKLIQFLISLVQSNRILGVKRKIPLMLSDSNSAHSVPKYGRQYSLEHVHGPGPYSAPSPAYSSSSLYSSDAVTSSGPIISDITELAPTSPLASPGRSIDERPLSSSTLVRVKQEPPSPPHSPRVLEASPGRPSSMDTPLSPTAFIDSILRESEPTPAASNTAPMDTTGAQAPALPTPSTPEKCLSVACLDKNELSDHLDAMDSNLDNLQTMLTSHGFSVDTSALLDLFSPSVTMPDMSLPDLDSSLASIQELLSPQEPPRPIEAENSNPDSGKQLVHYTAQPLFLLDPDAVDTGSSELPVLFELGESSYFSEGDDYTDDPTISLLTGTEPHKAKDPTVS
As to the kind of experiment: decrease of HSF1-responsive luciferase luminescence – cell-based, NIH3T3, dose retest, confirmation (AID 2382).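 Further: NIH3T3 fibroblasts with HSF1-driven luciferase reporter stressed by proteasome inhibitor MG132; luminescence from HSF1-driven luciferase expression after 8 hours of MG132 stress.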 The assay is classed as functional.

Another assay deals with Cytochrome P450 2C19 (Homo sapiens, UniProt P33261). As to the kind of experiment: Cytochrome panel assay with activity outcomes. Panel member name: p450-cyp2c19 Compounds with AC50 equal or less than 10 uM are considered active. The assay is classed as functional. Conditions: read-out: AC50.

Usually AC50 stands for the concentration at which the activity in the assay is half-maximal. The EC50 is the midpoint of the concentration-response curve.

Each structure is given as a SMILES string. The source made the active and inactive calls.

Chain of Cytochrome P450 2C9 (P11712 whole entry): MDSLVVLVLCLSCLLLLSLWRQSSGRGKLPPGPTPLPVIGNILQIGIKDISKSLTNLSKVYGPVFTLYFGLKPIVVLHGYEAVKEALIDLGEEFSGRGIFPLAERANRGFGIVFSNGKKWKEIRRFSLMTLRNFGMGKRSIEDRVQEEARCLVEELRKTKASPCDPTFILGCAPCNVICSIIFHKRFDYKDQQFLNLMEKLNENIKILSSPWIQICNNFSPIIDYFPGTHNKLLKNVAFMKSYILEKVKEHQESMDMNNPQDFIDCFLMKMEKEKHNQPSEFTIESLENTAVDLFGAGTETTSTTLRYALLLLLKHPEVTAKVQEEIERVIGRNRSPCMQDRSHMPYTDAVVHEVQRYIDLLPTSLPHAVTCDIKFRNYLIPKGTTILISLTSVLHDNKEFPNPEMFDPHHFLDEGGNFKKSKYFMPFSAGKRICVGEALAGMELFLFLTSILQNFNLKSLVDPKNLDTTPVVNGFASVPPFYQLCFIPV
Chain of Cytochrome P450 3A4 (P08684 whole entry): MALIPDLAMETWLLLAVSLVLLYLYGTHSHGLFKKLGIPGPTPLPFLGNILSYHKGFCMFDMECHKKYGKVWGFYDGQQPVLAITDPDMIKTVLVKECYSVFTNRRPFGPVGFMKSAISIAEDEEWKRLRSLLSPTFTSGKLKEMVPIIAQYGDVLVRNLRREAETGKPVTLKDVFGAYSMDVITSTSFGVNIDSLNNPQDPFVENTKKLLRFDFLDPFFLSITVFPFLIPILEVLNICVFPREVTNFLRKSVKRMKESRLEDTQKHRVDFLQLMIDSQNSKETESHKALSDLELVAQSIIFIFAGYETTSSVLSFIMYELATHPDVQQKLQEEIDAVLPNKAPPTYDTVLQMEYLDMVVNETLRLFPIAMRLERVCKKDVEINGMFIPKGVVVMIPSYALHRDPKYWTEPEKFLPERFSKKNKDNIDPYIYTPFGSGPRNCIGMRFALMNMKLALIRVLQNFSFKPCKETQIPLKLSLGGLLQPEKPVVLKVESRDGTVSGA
Chain of Cytochrome P450 2C19 (P33261 whole entry): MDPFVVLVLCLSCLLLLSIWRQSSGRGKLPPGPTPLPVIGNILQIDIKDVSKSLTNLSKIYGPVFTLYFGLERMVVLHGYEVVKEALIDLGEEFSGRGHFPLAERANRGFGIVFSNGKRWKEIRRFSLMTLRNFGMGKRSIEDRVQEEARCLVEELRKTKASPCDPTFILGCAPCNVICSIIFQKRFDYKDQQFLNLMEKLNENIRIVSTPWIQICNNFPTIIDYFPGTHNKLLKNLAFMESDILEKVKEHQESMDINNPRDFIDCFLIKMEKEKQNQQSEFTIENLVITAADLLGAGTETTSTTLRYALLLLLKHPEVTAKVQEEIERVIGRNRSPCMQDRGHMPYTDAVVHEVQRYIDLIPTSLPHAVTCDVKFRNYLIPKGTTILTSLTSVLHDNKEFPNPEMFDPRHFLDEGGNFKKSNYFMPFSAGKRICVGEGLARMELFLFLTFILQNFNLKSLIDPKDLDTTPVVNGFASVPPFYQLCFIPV

Take `Cc1ccc(-c2noc(-c3cc4ccccc4oc3=O)n2)cc1`: the figures for the AC50 on Cytochrome P450 3A4 and at Cytochrome P450 2C9 were 3.55 µM (inconclusive) and 6.31 µM (inconclusive), respectively.

Turning to `COc1ccc(NC(=O)CN(C)S(=O)(=O)c2ccc(Cl)cc2)c([N+](=O)[O-])c1`, the AC50 at Cytochrome P450 3A4 was 1.78 µM (inconclusive).

As to `CC(Sc1nnc(Cc2cccs2)n1C1CCCCC1)C(N)=O` (stereo not given), the AC50 at Cytochrome P450 3A4 was 3.98 µM (inconclusive).

As to `CC(=O)Oc1ccc2c(c1)CC[C@@H]1[C@@H]2CC[C@]2(C)[C@@H](O)CC[C@@H]12` [ESTRADIOL ACETATE], the EC50 in assay [1] is recorded as > 195 µM (not active).

With `O=C(C1CCC(CNS(=O)(=O)c2cccc3cccnc23)CC1)N1CCCC1` (stereo not given), in assay [1], the EC50 is on record as > 195 µM (not active).

For the compound `CN1C(C(=O)Nc2ccc(OC(F)(F)F)cc2)=CC(c2cccs2)=NS1(=O)=O`, the EC50 in assay [1] is 62.2 µM (active).

`CCOC(=O)c1cccc(NC(=O)C2CCN(c3ncnc4c3nc3n4CCCCC3)CC2)c1`: the EC50 in assay [1] was > 195 µM (not active).

As for `CCCCC/C=C\C[C@H](O)/C=C\c1cccc(C[C@H](O)CCCCO)n1`, the AC50 on Cytochrome P450 3A4 is 6.31 µM (inconclusive); at Cytochrome P450 2C9 it was 20 µM (inconclusive).

Take `CC1(C)OC(=O)C(/C=N/c2cccc(O)c2)=C(O)O1`: the AC50 on Cytochrome P450 3A4 was 31.6 µM (inconclusive).

Regarding `CCC(=O)n1nc(-c2cccnc2)nc1NCc1cccs1`, in assay [1], the EC50 is given as > 195 µM (not active).

For the compound `CN(C)C(=O)CSc1nnc(O)nc1O`, the EC50 in assay [1] is given as > 195 µM (not active).

As to `O=S(=O)(CCc1nc2ccccc2[nH]1)c1ccc(Cl)cc1`, in assay [1], the EC50 is on record as > 195 µM (not active).

For `O=c1c2ccccc2nc2n1C(CSc1ccc(F)cc1)CN2` (stereo not given), the AC50 was 31.6 µM (inconclusive) on Cytochrome P450 3A4 and 39.8 µM (inconclusive) at Cytochrome P450 2C9.

As for `O=C(CCc1nc(-c2cccs2)no1)NCc1ccc(F)cc1Cl`, the EC50 in assay [1] is listed as > 195 µM (not active).

Take `Cc1[nH]c2ccccc2c1/C=C/c1nc2ccccc2c(=O)n1-c1cccc([N+](=O)[O-])c1`: the EC50 in assay [1] is listed as > 195 µM (not active).

Consider `O=C(Oc1ccccc1)N1CCC[C@@]2(CCN(c3ncccn3)C2)C1`, for which the AC50 at Cytochrome P450 3A4 is 15.8 µM (inconclusive).

For `CCOC(=O)n1c(SCC(N)=O)nc2ccccc21`, in assay [1], the EC50 is given as > 195 µM (not active).

Regarding `COc1ccc(NC(=O)C23CC4CC(C2)CC(n2cnc(Br)n2)(C4)C3)c(C)c1`, the AC50 on Cytochrome P450 3A4 was 14.1 µM (inconclusive).

Consider `O=C(NC(C(=O)c1ccccc1)n1cnccc1=O)c1ccccc1` (stereo not given), for which the half-maximal activity concentration (AC50) at Cytochrome P450 2C19 was 2.82 µM (inconclusive); on Cytochrome P450 3A4, 14.1 µM (inconclusive); at Cytochrome P450 2C9 it was 8.91 µM (inconclusive).

Turning to `CCN(CC)c1ccc(CNc2nc3ccccc3n2CCN2CCOCC2)cc1`, the EC50 in assay [1] was > 195 µM (not active).
